These results are taken from paper PMC6100724, “Proteome‐wide analysis of phospho‐regulated PDZ domain interactions” (Molecular Systems Biology, 2018).

In assay [1] the target is T1, Scribble PDZ1 (Homo sapiens, UniProt Q14160).
T1 construct: human Scribble PDZ1 aa 719–829 in; made in house; host or cells: E. coli BL21 Gold (DE3)
The experiment in a line: Pre-phosphorylation ProP-PD: wild-type library treated with RPS6KA1 or not, selection with NGS. It is filed as binding. The settings on record: for Phosphorylated selection Mean fraction: Pre-phosphorylation with RPS6KA1; for Phosphorylated selection Mean fraction / Unphosphorylated selection Mean fraction: mean of the two selections, bait Scribble PDZ1; for Unphosphorylated selection Mean fraction: Without Kinase. The procedure:
For pre‐phosphorylation of the wild‐type ProP‐PD library, we obtained activated RPS6KA1 (Thermo Fisher). The time and amount of kinase required to phosphorylate the ProP‐PD library were tested in a phosphorylation assay.
(§1) Phage selections were carried out for four rounds following a protocol by Huang and Sidhu (Huang & Sidhu, 2011) with minor modifications. Non‐specific binding phage was removed by pre‐selections against immobilized GST throughout the selection. The selections against the (pre‐)phosphorylated wild‐type library were performed in 50 mM HEPES (pH 7.4) and 150 mM NaCl (HBS) following the same procedure after pre‐phosphorylation of the library.
(§2) • Immobilize proteins (15 μg in 100 μl PBS) in a 96‐well MaxiSorp microtiter plate (NUNC) overnight at 4°C. • Start a 2YT culture of E. coli Omnimax supplemented with 100 μg/ml tetracycline to retain the F pilus epitope. • Block the wells with 200 μl 0.5% BSA in PBS for 2 h at 4°C. • Precipitate naïve phage library (10^11 cfu per selection) or amplified phage pool from the previous round of selection by adding one‐fifth the volume of PEG/NaCl. • Incubate on ice for 10 min, and pellet precipitated phage by centrifugation at 5,300 g for 15 min. Resuspend the phage pellet in 100 μl PBS per selection. • Add 100 μl of phage solution to the GST‐coated pre‐selection wells and incubate for 1 h. • Transfer the phage solution to the immobilized target proteins and allow it to bind for 2 h at 8°C. • Wash the plate four times with 200 μl cold wash buffer (PBS, 0.05% Tween‐20). • Elute bound phage by incubation with 100 μl log phase (0.6–0.8 OD600) E. coli Omnimax for 30 min at 37°C with shaking (200 RPM). • Add 10^12 cfu/ml M13K07 helper phage for hyperinfection of the bacteria and incubate as above for 45 min. • Transfer the bacterial culture to 10 ml 2YT supplemented with 50 μg/ml carbenicillin, 25 μg/ml kanamycin, and 300 μM IPTG and incubate overnight at 37°C while shaking. • Perform phage pool ELISA to monitor the progress of the selection as described previously (Huang & Sidhu, 2011).
• Precipitate the naive wild‐type phage library (as described above, 1.8 × 10^10 cfu phage per selection). • Resuspend the precipitated phage pellets in 100 μl Kinase buffer per selection and add ATP (100 μM final concentration) and RPS6KA1 (500 ng/ml) to the phage solution. In parallel, prepare a negative control where only ATP is added to the phage pool. • Incubate the phosphorylation reaction for 2 h at room temperature. Stop the reaction through PEG/NaCl precipitation (as described above). • Resuspend the phage pool in 100 μl HBS.
During the 4 days of pre‐phosphorylation ProP‐PD selections, the input phage library of each day of selection was subjected to phosphorylation prior to phage selection.
(§3) The naïve library and the enriched phage pools of the third day of selection were amplified and barcoded by PCR and analyzed by NGS as described elsewhere (McLaughlin & Sidhu, 2013; Ivarsson et al, 2014). The reads were demultiplexed using the barcode sequences and filtered by discarding sequences with a Phred quality score under 30. Sequences were mapped to the original library using Bowtie (Langmead et al, 2009) with two mismatches between reads and library sequence. Nucleotide mutations leading to amino acid substitutions were subsequently removed. Cutoff values of NGS counts were assigned for each pool. PWMs were generated based on the remaining peptides (aligned on the C‐termini) using WebLogo (Crooks et al, 2004).

Assay [2] relates to Scribble PDZ3. The experiment in a line: Phosphomimetic ProP-PD selection with NGS. The format is binding, human. As to conditions: bait Scribble PDZ3. The protocol:
as §1, §2, §3
(§4) However, there was no significant correlation of the actual read counts (selection “strength”) and the initial representation in the library, reflecting the strong selection during phage display (wt+mimetic: P‐value: 0.49, ρ = −0.08, mimetic only: P‐value: 0.069, ρ = −0.2, wt only: P‐value: 0.12, ρ = 0.17). Consequently, the amount of reads for each binder after phage display is not a function of the amount of input reads in the naïve library and no modeling based on the input library frequencies to score the interactions is necessary. To allow for comparison between replicate selections, we used the fraction of NGS reads within a certain set, instead of the absolute number of NGS reads, as the absolute numbers differ between different NGS batches.

Assay [3] concerns DLG1 PDZ1. The experiment in a line: Phosphomimetic ProP-PD selection with NGS. It is filed as binding, human. As to conditions: mean of selections 1-3, bait DLG1 PDZ1; for Mean fraction #NGS counts wt peptide / total counts selection: wild type peptide; for Mean fraction #NGS counts mimetic peptide / total count selection: phosphomimetic peptide. The protocol:
as §1, §2, §3, §4

The subject of assay [4] is Scribble PDZ2. The experiment in a line: Phosphomimetic ProP-PD selection with NGS. The format is binding, human. The settings on record: bait Scribble PDZ2. The protocol: as §1, §2, §3, §4
The target of assay [5] is T2, DLG1 PDZ2 (Homo sapiens, UniProt Q12959).
T2 construct: human DLG1 PDZ2 aa 311–407 in a modified pRSET vector 40; made in house; host or cells: E. coli BL21 Gold (DE3)
The experiment in a line: Phosphomimetic ProP-PD selection with NGS. The format is binding. The settings on record: mean of selections 1-3, bait DLG1 PDZ2. The procedure:
as §1, §2, §3, §4

Assay [6] concerns the target T1, Scribble PDZ1. The experiment in a line: Phosphomimetic ProP-PD selection with NGS. The settings on record: bait Scribble PDZ1; mean of selections 1-3. The format is binding. The procedure: as §1, §2, §3, §4
The mark [7] stands for this setting: mean of selections 1 and 2 (selection 3 empty).
The mark [8] stands for this setting: mean of selections 1-3, wild type peptide.
Where [9] appears, read: mean of selections 1-3, phosphomimetic peptide.

T2 sequence (Q12959 311-407): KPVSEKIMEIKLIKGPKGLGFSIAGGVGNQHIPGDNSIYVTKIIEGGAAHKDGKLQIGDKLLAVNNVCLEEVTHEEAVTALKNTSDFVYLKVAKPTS
T1 sequence (Q14160 719-829): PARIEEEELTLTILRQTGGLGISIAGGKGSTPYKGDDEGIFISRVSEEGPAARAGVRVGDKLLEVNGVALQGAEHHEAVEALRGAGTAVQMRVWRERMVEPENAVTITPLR

For the substance SARLWETSI [ADAM22], in assay [1], the “Phosphorylated selection Mean fraction” value is 0.05157 and the “Unphosphorylated selection Mean fraction” value was 0.03077.
Consider TMFLRETSL, for which the “Mean fraction #NGS counts wt peptide / total counts selection” value in assay [2] (mean over selections 1-3) amounted to 0.0186; in assay [3], 0.0004495; in assay [4] (mean over selections) it was 0.008166; in assay [5] it was 0.0002151; in assay [6], 0.01417.
As for SQSRMSTNM, the “Mean fraction #NGS counts wt peptide / total counts selection” value in assay [2] (mean over selections 1-3) and in assay [4] (setting [7]) was 0 each time.
With KRSFIESNV, the “Mean fraction #NGS counts wt peptide / total counts selection” value in assay [2] (mean over selections 1-3) was 0.07707; in assay [3], 0.0007809; in assay [4] (setting [7]) it was 0.2119; in assay [5] (wild type peptide) it was 0.007809; in assay [6] it was 0.03115.
As to SGEYLVTEV, in assay [4] (mean over selections), the “Mean fraction #NGS counts mimetic peptide / total count selection” value was determined as 0.001329.
As for SRDRKETSI [RALBP1], in assay [1], the “Phosphorylated selection Mean fraction” value is listed as 0 and the “Unphosphorylated selection Mean fraction” value worked out at 1.381e-5.
In the case of LPHSPHSHL [AAAS], in assay [1], the “Phosphorylated selection Mean fraction” value is recorded as 6.993e-6 and the “Unphosphorylated selection Mean fraction” value is recorded as 4.139e-6.
On to QEELKLSNL, for which the “Mean fraction #NGS counts mimetic peptide / total count selection” value in assay [4] (setting [7]) was found to be 0.0005697.
For KREFIESNV, the “Mean fraction #NGS counts mimetic peptide / total count selection” value is reported as 0.005112 in assay [2] (mean over selections 1-3); 2.37e-6 in assay [3]; 0.003418 in assay [4] (setting [7]); 0.0001273 in assay [5] (phosphomimetic peptide); 0.0009157 in assay [6].
Regarding PIHSLETSL [ATP2B2], in assay [1], the “Phosphorylated selection Mean fraction” value is recorded as 0.0009701 and the “Unphosphorylated selection Mean fraction” value is listed as 0.003212.
Regarding TMFLRETSL‐coo‐, the “proportion of NGS counts, pre‐phosphorylated library relative to unphosphorylated library (fold)” value in assay [1] (phage-displayed peptide, library treated with RPS6KA1, selection against Scribble PDZ1, n = 2) turned out to be 3 ×.
With DKESFLTWL [YAP1], in assay [1], the “Phosphorylated selection Mean fraction” value stood at 0.0002294 and the “Unphosphorylated selection Mean fraction” value was found to be 0.0001256.
In the case of TMFLRETEL, the “Mean fraction #NGS counts mimetic peptide / total count selection” value was 0.4954 in assay [2] (mean over selections 1-3); 0.002709 in assay [3]; 0.1922 in assay [4] (mean over selections); 0.0007019 in assay [5]; 0.8115 in assay [6].
As for VVHTPETSV, the “Mean fraction #NGS counts wt peptide / total counts selection” value came out at 6.402e-5 in assay [2] (setting [8]), 0 in assay [4] (mean over selections), 3.877e-6 in assay [5] and 7.859e-5 in assay [6].
Regarding YPGSPDEWV, the “Mean fraction #NGS counts mimetic peptide / total count selection” value in assay [4] (setting [7]) is listed as 0.
With WVDSYYTSL, the “Mean fraction #NGS counts wt peptide / total counts selection” value in assay [2] (setting [8]) is 0.0003456; in assay [4] (mean over selections), 0.
Take RSRSISTDV: the “Mean fraction #NGS counts wt peptide / total counts selection” value worked out at 0.0004544 in assay [2] (mean over selections 1-3), 0.001899 in assay [4] (setting [7]), 0.02018 in assay [5] and 0.0001844 in assay [6].
With YPGSPDSWV, the “Mean fraction #NGS counts wt peptide / total counts selection” value in assay [3] amounted to 3.476e-5; in assay [4] (setting [7]) it was 0.2284; in assay [5], 0.0005284.
SGSYLVTSV: the “Mean fraction #NGS counts wt peptide / total counts selection” value was 0.0003798 in assay [4] (setting [7]); 0.0003798 in assay [4] (mean over selections); 0.0001258 in assay [5]; 0.0001258 in assay [5] (wild type peptide); 4.38e-5 in assay [6].
Consider RSRSIETDV, for which the “Mean fraction #NGS counts mimetic peptide / total count selection” value in assay [2] (mean over selections 1-3) worked out at 0.001306; in assay [3] it was 0.001793; in assay [4] (setting [7]), 0.06648; in assay [5], 0.009109; in assay [6], 0.0006725.
Regarding TELTWISTL, in assay [4] (setting [7]), the “Mean fraction #NGS counts mimetic peptide / total count selection” value is given as 0.002089.
As for RGLESATSL, in assay [4] (mean over selections), the “Mean fraction #NGS counts wt peptide / total counts selection” value is 0.
As to YPASPDSWV, the “Mean fraction #NGS counts wt peptide / total counts selection” value in assay [4] (setting [7]) was 0.02304; in assay [5], 0.0001112.
With YPGEPDSWV, the “Mean fraction #NGS counts mimetic peptide / total count selection” value in assay [4] (setting [7]) was found to be 0.
As to VVSERISSV, the “Mean fraction #NGS counts wt peptide / total counts selection” value was 0.003259 in assay [4] (setting [7]), 0.003259 in assay [4] (mean over selections) and 0.0005322 in assay [5].
As to SQERMETNM, the “Mean fraction #NGS counts mimetic peptide / total count selection” value was determined as 0.0002907 in assay [2] (mean over selections 1-3) and 0.007678 in assay [4] (setting [7]).
For the substance QSELKLSNL, the “Mean fraction #NGS counts wt peptide / total counts selection” value in assay [4] (setting [7]) stood at 0.0009495.
As to VVSERISEV, the “Mean fraction #NGS counts mimetic peptide / total count selection” value in assay [4] (mean over selections) was 0.0003798; in assay [5], 0.0004709.
Turning to VVHTPETEV, the “Mean fraction #NGS counts mimetic peptide / total count selection” value came to 1.817e-5 in assay [2] (setting [9]), 0.0004495 in assay [3], 0.0009495 in assay [4] (mean over selections) and 5.021e-5 in assay [5].
Take VVSERIESV: the “Mean fraction #NGS counts mimetic peptide / total count selection” value in assay [4] (setting [7]) is on record as 0.0001899.
With WVDSYYTEL, the “Mean fraction #NGS counts mimetic peptide / total count selection” value in assay [2] (setting [9]) is 0.002589; in assay [4] (mean over selections), 0.002879.
As to YPAEPDSWV, the “Mean fraction #NGS counts mimetic peptide / total count selection” value in assay [4] (setting [7]) and in assay [5] was 0 each time.
Take SGEYLVTSV: the “Mean fraction #NGS counts mimetic peptide / total count selection” value in assay [4] (setting [7]) is on record as 0.001139; in assay [5], 0.
TSLTWISTL: in assay [4] (setting [7]), the “Mean fraction #NGS counts wt peptide / total counts selection” value was 0.
For RGLESATEL, in assay [4] (mean over selections), the “Mean fraction #NGS counts mimetic peptide / total count selection” value worked out at 0.001519.
